Measurements published in patent US20250255304A1, “HIGHLY TRA[…] CONTROLLING COMPOSITION” (ZM Crop Protection Corporation, priority 2022, published 2025).

Assays:
Type in all cases: in vivo
[1] = test system: Coptotermes formosanus Shiraki; assay: Test Example 1: effect of agent on gypsum treated with test agent solution; conditions: dicloromezotiaz 0.023%, imidacloprid 0.1%, fipronil 0.03% test agent solution on gypsum
Description: A test agent solution containing 0.023 parts of dicloromezotiaz was prepared by adding 99.875 parts of water to 0.125 parts of the aqueous suspension composition shown in Formulation Example 1.
In a comparative example, an aqueous suspension composition prepared by adding an agent solution, wherein 99 parts of water was added to 1 part of a flowable containing 10.0 parts of imidacloprid and which contained 0.1 parts of imidacloprid and a drug solution, wherein 299 parts of water was added to 1 part of a flowable containing 9.1 parts of fipronil and which contained 0.03 parts of fipronil, uniformly mixing same was used as a test agent solution of a comparative example.
As the imidacloprid formulation and the fipronil formulation, commercially available termite controlling agents were used and diluted solutions at practical agent concentrations thereof were used as test agent solutions.
Gypsum was cured and spread in a glass petri dish having a diameter of 90 mm, 15 ml of each of the test agent solution of the example and the test agent solution of the comparative example was uniformly dropped on the entire surface of the gypsum. Thereafter, ten workers of Coptotermes formosanus Shiraki were released into the petri dish and the petri dish was covered and left to stand in a thermostatic chamber (25° C./relative humidity 60%).
The number of abnormal termites and the number of dead termites among the released termites (Coptotermes formosanus Shiraki) were observed every one hour from immediately after the release of the termites (Coptotermes formosanus Shiraki) until ten hours passed and the total number of the abnormal termite rate and the dead termite rate was calculated as the abnormal or dead termite rate (%) according to [Expression 1] below and the rates of expression of the effects of the respective agents were compared. Each test agent was prepared in one petri dish as one plot and the test was carried out in two replicates.

[2] = test system: Coptotermes formosanus Shiraki; assay: Test Example 2: primary transmission treatment effect
Description: (§1) A test agent solution containing 0.023 parts of dicloromezotiaz was prepared by adding 99.875 parts of water to 0.125 parts of the aqueous suspension composition shown in Formulation Example 1. As comparative examples, four types of commercially available neonicotinoid termite controlling agents and four types of slow-acting termite controlling agents shown in Table 2 were diluted with water at practical concentrations to prepare test agent solutions. The “agent concentration (%)” indicates the concentration of the active ingredient contained in each of the composition of the present invention and the termite controlling agents and the “test agent solution concentration (%)” indicates the concentration of the active ingredient in each of the prepared test agent solutions.
(§2) After 1.2 g of each of the test agent solutions of the example and the comparative examples diluted to a predetermined concentration and prepared was added to 4.8 g of soil, 6 g of the mixed soil was spread in a glass petri dish having a diameter of 50 mm and ten workers of Coptotermes formosanus Shiraki were released into the petri dish and exposed to the agent solution for 4 hours.

[3] = test system: Coptotermes formosanus Shiraki; assay: Test Example 2: secondary transmission treatment effect
Description: as §1, §2

[4] = test system: Coptotermes formosanus Shiraki; assay: Test Example 3: extirpation test with dust formulation using simulated termite trails

Cc1cccn2c(=O)c(-c3cc(Cl)cc(Cl)c3)c([O-])[n+](Cc3cnc(Cl)s3)c12 [Dicloromezotiaz, dicloromezotiaz]
Abnormal or dead termite rate (%) ([1]; time elapsed 1 h): 0%
Abnormal or dead termite rate (%) ([1]; time elapsed 2 h): 0%
Abnormal or dead termite rate (%) ([1]; time elapsed 3 h): 0%
Abnormal or dead termite rate (%) ([1]; time elapsed 4 h): 0%
Abnormal or dead termite rate (%) ([1]; time elapsed 5 h): 0%
Abnormal or dead termite rate (%) ([1]; time elapsed 6 h): 19%
Abnormal or dead termite rate (%) ([1]; time elapsed 7 h): 37%
Abnormal or dead termite rate (%) ([1]; time elapsed 8 h): 51%
Abnormal or dead termite rate (%) ([1]; time elapsed 9 h): 78%
Abnormal or dead termite rate (%) ([1]; time elapsed 10 h): 100%
Abnormal or dead termite rate (%) ([2]; after 1 day, Table 3, dicloromezotiaz 0.023%, fipronil 0.03%, imidacloprid 0.10%, chlorantraniliprole 0.05% solution in soil): 100%
Abnormal or dead termite rate (%) ([2]; after 1 day, Table 4, dicloromezotiaz 0.023%, chlorfenapyr 0.11%, clothianidin 0.05%, dinotefuran 0.20%, thiamethoxam 0.10%, broflanilide 0.03% solution in soil): 100%
Abnormal or dead termite rate (%) ([2]; after 3 days, Table 3, dicloromezotiaz 0.023%, fipronil 0.03%, imidacloprid 0.10%, chlorantraniliprole 0.05% solution in soil): 100%
Abnormal or dead termite rate (%) ([2]; after 3 days, Table 4, dicloromezotiaz 0.023%, chlorfenapyr 0.11%, clothianidin 0.05%, dinotefuran 0.20%, thiamethoxam 0.10%, broflanilide 0.03% solution in soil): 100%
Abnormal or dead termite rate (%) ([2]; after 7 days, Table 3, dicloromezotiaz 0.023%, fipronil 0.03%, imidacloprid 0.10%, chlorantraniliprole 0.05% solution in soil): 100%
Abnormal or dead termite rate (%) ([2]; after 7 days, Table 4, dicloromezotiaz 0.023%, chlorfenapyr 0.11%, clothianidin 0.05%, dinotefuran 0.20%, thiamethoxam 0.10%, broflanilide 0.03% solution in soil): 100%
Abnormal or dead termite rate (%) ([2]; after 14 days, Table 3, dicloromezotiaz 0.023%, fipronil 0.03%, imidacloprid 0.10%, chlorantraniliprole 0.05% solution in soil): 100%
Abnormal or dead termite rate (%) ([2]; after 14 days, Table 4, dicloromezotiaz 0.023%, chlorfenapyr 0.11%, clothianidin 0.05%, dinotefuran 0.20%, thiamethoxam 0.10%, broflanilide 0.03% solution in soil): 100%
Abnormal or dead termite rate (%) ([2]; after 21 days, Table 3, dicloromezotiaz 0.023%, fipronil 0.03%, imidacloprid 0.10%, chlorantraniliprole 0.05% solution in soil): 100%
Abnormal or dead termite rate (%) ([2]; after 21 days, Table 4, dicloromezotiaz 0.023%, chlorfenapyr 0.11%, clothianidin 0.05%, dinotefuran 0.20%, thiamethoxam 0.10%, broflanilide 0.03% solution in soil): 100%
Abnormal or dead termite rate (%) ([3]; after 1 day, Table 5, dicloromezotiaz 0.023%, fipronil 0.03%, imidacloprid 0.10%, chlorantraniliprole 0.05% solution in soil): 8.9%
Abnormal or dead termite rate (%) ([3]; after 1 day, Table 6, dicloromezotiaz 0.023%, chlorfenapyr 0.11%, clothianidin 0.05%, dinotefuran 0.20%, thiamethoxam 0.10%, broflanilide 0.03% solution in soil): 2.2%
Abnormal or dead termite rate (%) ([3]; after 3 days, Table 5, dicloromezotiaz 0.023%, fipronil 0.03%, imidacloprid 0.10%, chlorantraniliprole 0.05% solution in soil): 83%
Abnormal or dead termite rate (%) ([3]; after 3 days, Table 6, dicloromezotiaz 0.023%, chlorfenapyr 0.11%, clothianidin 0.05%, dinotefuran 0.20%, thiamethoxam 0.10%, broflanilide 0.03% solution in soil): 44%
Abnormal or dead termite rate (%) ([3]; after 7 days, Table 5, dicloromezotiaz 0.023%, fipronil 0.03%, imidacloprid 0.10%, chlorantraniliprole 0.05% solution in soil): 91%
Abnormal or dead termite rate (%) ([3]; after 7 days, Table 6, dicloromezotiaz 0.023%, chlorfenapyr 0.11%, clothianidin 0.05%, dinotefuran 0.20%, thiamethoxam 0.10%, broflanilide 0.03% solution in soil): 88%
Abnormal or dead termite rate (%) ([3]; after 14 days, Table 5, dicloromezotiaz 0.023%, fipronil 0.03%, imidacloprid 0.10%, chlorantraniliprole 0.05% solution in soil): 91%
Abnormal or dead termite rate (%) ([3]; after 14 days, Table 6, dicloromezotiaz 0.023%, chlorfenapyr 0.11%, clothianidin 0.05%, dinotefuran 0.20%, thiamethoxam 0.10%, broflanilide 0.03% solution in soil): 88%
Abnormal or dead termite rate (%) ([3]; after 21 days, Table 5, dicloromezotiaz 0.023%, fipronil 0.03%, imidacloprid 0.10%, chlorantraniliprole 0.05% solution in soil): 92%
Abnormal or dead termite rate (%) ([3]; after 21 days, Table 6, dicloromezotiaz 0.023%, chlorfenapyr 0.11%, clothianidin 0.05%, dinotefuran 0.20%, thiamethoxam 0.10%, broflanilide 0.03% solution in soil): 84%
Abnormal or dead termite rate (%) ([4]; active ingredient concentration 0.10%, 1 h): 0%
Abnormal or dead termite rate (%) ([4]; active ingredient concentration 0.10%, 2 h): 0%
Abnormal or dead termite rate (%) ([4]; active ingredient concentration 0.10%, 3 h): 0%
Abnormal or dead termite rate (%) ([4]; active ingredient concentration 0.10%, 4 h): 25%
Abnormal or dead termite rate (%) ([4]; active ingredient concentration 0.10%, 5 h): 35%
Abnormal or dead termite rate (%) ([4]; active ingredient concentration 0.10%, 6 h): 40%
Abnormal or dead termite rate (%) ([4]; active ingredient concentration 0.10%, 7 h): 40%
Abnormal or dead termite rate (%) ([4]; active ingredient concentration 0.10%, 1 day): 85%
Abnormal or dead termite rate (%) ([4]; active ingredient concentration 0.10%, 2 days): 100%
Abnormal or dead termite rate (%) ([4]; active ingredient concentration 0.10%, 3 days): 100%
Abnormal or dead termite rate (%) ([4]; active ingredient concentration 0.10%, 7 days): 100%
Abnormal or dead termite rate (%) ([4]; active ingredient concentration 0.25%, 1 h): 0%
Abnormal or dead termite rate (%) ([4]; active ingredient concentration 0.25%, 2 h): 0%
Abnormal or dead termite rate (%) ([4]; active ingredient concentration 0.25%, 3 h): 25%
Abnormal or dead termite rate (%) ([4]; active ingredient concentration 0.25%, 4 h): 25%
Abnormal or dead termite rate (%) ([4]; active ingredient concentration 0.25%, 5 h): 60%
Abnormal or dead termite rate (%) ([4]; active ingredient concentration 0.25%, 6 h): 100%
Abnormal or dead termite rate (%) ([4]; active ingredient concentration 0.25%, 7 h): 100%
Abnormal or dead termite rate (%) ([4]; active ingredient concentration 0.25%, 1 day): 100%
Abnormal or dead termite rate (%) ([4]; active ingredient concentration 0.25%, 2 days): 100%
Abnormal or dead termite rate (%) ([4]; active ingredient concentration 0.25%, 3 days): 100%
Abnormal or dead termite rate (%) ([4]; active ingredient concentration 0.25%, 7 days): 100%
Abnormal or dead termite rate (%) ([4]; active ingredient concentration 0.5%, 1 h): 0%
Abnormal or dead termite rate (%) ([4]; active ingredient concentration 0.5%, 2 h): 0%
Abnormal or dead termite rate (%) ([4]; active ingredient concentration 0.5%, 3 h): 45%
Abnormal or dead termite rate (%) ([4]; active ingredient concentration 0.5%, 4 h): 45%
Abnormal or dead termite rate (%) ([4]; active ingredient concentration 0.5%, 5 h): 100%
Abnormal or dead termite rate (%) ([4]; active ingredient concentration 0.5%, 6 h): 100%
Abnormal or dead termite rate (%) ([4]; active ingredient concentration 0.5%, 7 h): 100%
Abnormal or dead termite rate (%) ([4]; active ingredient concentration 0.5%, 1 day): 100%
Abnormal or dead termite rate (%) ([4]; active ingredient concentration 0.5%, 2 days): 100%
Abnormal or dead termite rate (%) ([4]; active ingredient concentration 0.5%, 3 days): 100%
Abnormal or dead termite rate (%) ([4]; active ingredient concentration 0.5%, 7 days): 100%
Abnormal or dead termite rate (%) ([4]; active ingredient concentration 1%, 1 h): 0%
Abnormal or dead termite rate (%) ([4]; active ingredient concentration 1%, 2 h): 30%
Abnormal or dead termite rate (%) ([4]; active ingredient concentration 1%, 3 h): 85%
Abnormal or dead termite rate (%) ([4]; active ingredient concentration 1%, 4 h): 85%
Abnormal or dead termite rate (%) ([4]; active ingredient concentration 1%, 5 h): 100%
Abnormal or dead termite rate (%) ([4]; active ingredient concentration 1%, 6 h): 100%
Abnormal or dead termite rate (%) ([4]; active ingredient concentration 1%, 7 h): 100%
Abnormal or dead termite rate (%) ([4]; active ingredient concentration 1%, 1 day): 100%
Abnormal or dead termite rate (%) ([4]; active ingredient concentration 1%, 2 days): 100%
Abnormal or dead termite rate (%) ([4]; active ingredient concentration 1%, 3 days): 100%
Abnormal or dead termite rate (%) ([4]; active ingredient concentration 1%, 7 days): 100%
